Test results: patent publication US7365096B2, “Methods for selectively inhibiting Janus tyrosine kinase 3 (Jak3)” (Board of Regents, The University of Texas System, priority 2002, dated 2008)
Read-outs that look alike come from different tables or passages of the source.

Assays:
Format in all cases: cell-based
[1] = tested on: rat T cell line (Nb2-11c); assay: Proliferation of rat Nb2-11c T cells, IL-2 (Jak3) versus PRL (Jak2) stimulated
Protocol: (§1) Cell culture and treatment. The rat T-cell line Nb2-11c, originally developed by Dr. Peter Gout (Vancouver, Canada), was grown in RPMI-1640 with 10% fetal calf serum (Intergen, cat. no. 1020-90), 2 mM L-glutamine, 5 mM HEPES, pH 7.3, and penicillin-streptomycin (50 IU/ml and 50 μg/ml, respectively), at 37° C./5% CO2. Freshly explanted normal human T lymphocytes purified by isocentrifugation (Ficoll®; EM Science, Gibbstown, N.J.) were phytohemagglutinin (PHA)-activated for 72 hours as previously described.^23 T lymphocytes were made quiescent by washing and incubating for 24 hours in RPMI-1640 medium containing 1% fetal calf serum before exposure to cytokines. […] The Mannich base 649641P (NC1153) was generously provided by Dr. Jonathan Dimmock College of Pharmacy, University of Saskatchewan, Saskatoon, Saskatchewan, Canada. All cells were then stimulated with 1 nM recombinant human IL-2 (Hoffman-LaRoche, Basel, Switzerland), IL4 or IL7 (PeproTech), or ovine prolactin (PRL) supplied by the National Hormone and Pituitary Program, National Institute of Diabetes, Digestive, and Kidney Disease (Bethesda, Md.), at 37° C. Cell pellets were frozen at −70° C.
(§2) Proliferation assays. Quiescent human primary T-cells, YT or rat Nb2-11c T-cells (5.0×10^4/well) were plated in flat-bottom, 96-well microtiter plates in 200 μl of quiescent media in the absence or presence of 1 nM IL-2, -4, -7 (PeproTech, Rock Hill, N.J.), or PRL. Next, cells were treated for 16 hours with the Mannich base drug and then pulsed for 4 hours with [^3H]-thymidine (0.5 μCi/200 μl) and harvested onto fiberglass filters. [^3H]-thymidine incorporation was analyzed by liquid scintillation counting as previously described,^23 or using standard techniques that are well known in the art.
The rat T cell line (Nb2-11c) was chosen because it responds to either PRL/Jak2 or IL-2/Jak3 stimulation.
FIG. 14B through FIG. 39B show the chemical formulas of various Mannich base compounds and others (shown as salts) that were screened for ability to inhibit proliferation in prolactin or IL2 stimulated T-cells. […]

human Jurkat T-cells = assay: Growth / DNA synthesis of non-Jak3 expressing Jurkat cells
[2] = tested on: γc/Jak3-dependent PHA-activated human T cells; assay: Proliferation of PHA-activated human T cells ([3H]-thymidine); settings: for IC50: Homo sapiens
Protocol: as §1, §2

Question: Which “effectiveness for inhibiting Jak3- versus Jak2-dependent proliferation” value ([1]; 1 nM IL-2 vs 1 nM PRL, 0-100 μM, 16 hours) does the source give for `CN(C)CC1CCCCCCCCCC(CN(C)C)C1=O` (mixture of isomers) [649641P (NC1153)] here?
Answer: 3 fold

Question: What about the “selective inhibition of IL-2/Jak3-dependent versus PRL/Jak2-dependent T-cell proliferation” value ([1]; IL-2 vs PRL stimulated) of the same compound?
Answer: selectively inhibits γc/Jak3-dependent but not PRL/Jak2-dependent cell proliferation

Question: What about the “inhibition of cell proliferation in response to IL-2, IL-4 and IL-7” value ([1]; as printed: Nb2-11c cells) of the same compound?
Answer: equally effective

Question: And the “cell growth / DNA synthesis of Jurkat cells” value (human Jurkat T-cells)?
Answer: did not inhibit DNA synthesis

Question: And the “cell growth / DNA synthesis of Jurkat cells” value (human Jurkat T-cells; listed as NC1153)?
Answer: does not block cell growth

Question: And the IC50 ([2]; T-cell, 1 nM IL-4, read-out: IC50, IL4 driven cell growth)?
Answer: ~2.5 µM

Question: And the IC50 ([2]; T-cell, 1 nM IL-7, read-out: IC50, IL7 driven cell growth)?
Answer: ~2.5 µM

Question: And the IC50 ([2]; IL-2 driven T-cell growth, 16 hours drug, [3H]-thymidine, read-out: IC50, disrupting cell growth)?
Answer: ~2.5 µM

Question: And the “IL2, IL4 or IL7 driven growth normalized to untreated controls” value ([2]; dose dependent)?
Answer: inhibits IL2, IL4 or IL7 driven growth
